Common to all, as to experiment: Post-emergence efficacy, glasshouse spray test
Holding throughout (type): in vivo

In one assay the test system is Lolium perenne (LOLPE). The note with it: Application Rate 500 g/Ha, evaluated after 13 days; for pest or weed control at 500 g/ha: Lolium perenne, post-emergence, 312 h, read-out: Control of weed species after post-emergence application, LOLPE (100=total damage to plant; 0=no damage to plant). The essentials:
(§1)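 Scoring 13 days after treatment ran 0 = no damage to 100 = plant killed. Spray solution: formula (I) dissolved in acetone with IF50 emulsifier/solvent mix, diluted with 0.25% or 1% sodium lauryl ether sulphate plus 1% ammonium sulphate, applied to 14-day-old glasshouse plants (24/16 °C, 14 h light, 65% humidity).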

A further assay concerns Setaia fabei (SETFA). Particulars: Application Rate 500 g/Ha, evaluated after 13 days; for pest or weed control at 500 g/ha: Setaria faberi, post-emergence, 312 h, read-out: Control of weed species after post-emergence application, SETFA (100=total damage to plant; 0=no damage to plant). The essentials: as §1
The subject of assay [1] is Amaranthus palmeri (AMAPA). Particulars: Application Rate 500 g/Ha, evaluated after 13 days; for pest or weed control at 500 g/ha: Amaranthus palmeri, post-emergence, 312 h, read-out: Control of weed species after post-emergence application, AMAPA (100=total damage to plant; 0=no damage to plant). The essentials: as §1
In assay [2] the test system is Digitaria sanguinalis (DIGSA). The note with it: Application Rate 500 g/Ha, evaluated after 13 days; for pest or weed control at 500 g/ha: Digitaria sanguinalis, post-emergence, 312 h, read-out: Control of weed species after post-emergence application, DIGSA (100=total damage to plant; 0=no damage to plant). The essentials: as §1
The subject of assay [3] is Euphorbia heterophylla (EPHHL). Particulars: Application Rate 500 g/Ha, evaluated after 13 days; for pest or weed control at 500 g/ha: Euphorbia heterophylla, post-emergence, 312 h, read-out: Control of weed species after post-emergence application, EPHHL (100=total damage to plant; 0=no damage to plant). The essentials:
as §1

Assay [4] concerns Ipomoea hederacea (IPOHE). Particulars: Application Rate 500 g/Ha, evaluated after 13 days; for pest or weed control at 500 g/ha: Ipomoea hederacea, post-emergence, 312 h, read-out: Control of weed species after post-emergence application, IPOHE (100=total damage to plant; 0=no damage to plant). The essentials: as §1
The test system of assay [5] is Echinochloa crus-galli (ECHCG). The note with it: Application Rate 500 g/Ha, evaluated after 13 days; for pest or weed control at 500 g/ha: Echinochloa crus-galli, post-emergence, 312 h, read-out: Control of weed species after post-emergence application, ECHCG (100=total damage to plant; 0=no damage to plant). The essentials:
as §1

The test system of assay [6] is Chenopodium album (CHEAL). Particulars: Application Rate 500 g/Ha, evaluated after 13 days; for pest or weed control at 500 g/ha: Chenopodium album, post-emergence, 312 h, read-out: Control of weed species after post-emergence application, CHEAL (100=total damage to plant; 0=no damage to plant). The essentials:
as §1

The subject of the next assay is Eleusine indica (ELEIN). Particulars: Application Rate 500 g/Ha, evaluated after 13 days; for pest or weed control at 500 g/ha: Eleusine indica, post-emergence, 312 h, read-out: Control of weed species after post-emergence application, ELEIN (100=total damage to plant; 0=no damage to plant). The essentials:
as §1

As for `O=S(=O)([O-])OCC[n+]1ccc(-c2nccs2)cn1` [Compound A113], the pest or weed control at 500 g/ha in the assay on Lolium perenne (LOLPE) came out at 60%; in the assay with Setaia fabei (SETFA) it was 70%; in assay [1], 100%; in assay [2] it was 70%; in assay [3] it was 70%; in assay [4], 50%. The pest or weed control at 500 g/ha in assay [5] came to 70%; in assay [6] it was 60%; with Eleusine indica (ELEIN), 70%.

`O=C(O)CCC[n+]1ccc(-c2nccs2)cn1` [Compound A115]: the pest or weed control at 500 g/ha was determined as 60% in the assay on Lolium perenne (LOLPE); 100% with Setaia fabei (SETFA); 100% in assay [1]; 90% in assay [2]; 100% in assay [3]; 20% in assay [4]. The pest or weed control at 500 g/ha in assay [5] was 90%; in assay [6], 70%; in the assay with Eleusine indica (ELEIN), 100%.

Turning to `O=S(=O)([O-])CCC[n+]1ccc(-c2nccs2)cn1` [Compound A116], the pest or weed control at 500 g/ha was 80% in the assay with Lolium perenne (LOLPE); 60% with Setaia fabei (SETFA); 100% in assay [1]; 60% in assay [2]; 70% in assay [3]; 20% in [4]. The figures for the pest or weed control at 500 g/ha (in [5]; in [6]; in the assay with Eleusine indica (ELEIN)) were 60%, 40% and 80%, respectively.

As for `Cn1cnc(-c2cc[n+](CCCS(=O)(=O)[O-])nc2)n1` [Compound A117], the pest or weed control at 500 g/ha in the assay on Lolium perenne (LOLPE) turned out to be 40%; in the assay on Setaia fabei (SETFA) it was 90%; in [1] it was 40%; in [2] it was 80%; in assay [3], 70%; in assay [4] it was 30%. Also, the pest or weed control at 500 g/ha was found to be 70% in assay [5], 20% in assay [6] and 20% with Eleusine indica (ELEIN).

As to `Cn1cnc(-c2cc[n+](CCOS(=O)(=O)[O-])nc2)n1` [Compound A118], the pest or weed control at 500 g/ha in the assay on Lolium perenne (LOLPE) turned out to be 40%; with Setaia fabei (SETFA), 90%; in assay [1], 50%; in assay [2], 90%; in assay [3], 70%; in [4], 30%. The figures for the pest or weed control at 500 g/ha (in assay [5]; in assay [6]; in the assay on Eleusine indica (ELEIN)) were 90%, 30% and 70%, respectively.

With `Cn1cnc(-c2cc[n+](CCCC(=O)O)nc2)n1` [Compound A119], the pest or weed control at 500 g/ha came to 30% in the assay on Lolium perenne (LOLPE); 100% with Setaia fabei (SETFA); 100% in assay [1]; 90% in assay [2]; 80% in [3]; 30% in [4]. In addition, the figures for the pest or weed control at 500 g/ha (in assay [5]; in assay [6]; in the assay with Eleusine indica (ELEIN)) were 80%, 50% and 90%, respectively.

Consider `COC(=O)C[n+]1ccc(-c2nccs2)cn1` [Compound A120], for which the pest or weed control at 500 g/ha in the assay on Lolium perenne (LOLPE) turned out to be 0%; with Setaia fabei (SETFA) it was 60%; in [1] it was 100%; in assay [2] it was 80%; in [3], 70%; in assay [4], 10%. For the same compound, the figures for the pest or weed control at 500 g/ha (in [5]; in [6]; in the assay with Eleusine indica (ELEIN)) were 70%, 50% and 90%, respectively.

As to `COC(=O)CCC[n+]1ccc(-c2ncn(C)n2)cn1` [Compound A121], the pest or weed control at 500 g/ha with Lolium perenne (LOLPE) is 10%; in the assay with Setaia fabei (SETFA) it was 40%; in [1], 30%; in assay [2], 60%; in [3], 40%; in assay [4] it was 10%. Also, the pest or weed control at 500 g/ha was 100% in [5], 10% in assay [6] and 50% in the assay on Eleusine indica (ELEIN).

On to `O=C(O)CC[n+]1ccc(-c2cncs2)cn1` [Compound A122], for which the pest or weed control at 500 g/ha in the assay with Lolium perenne (LOLPE) came out at 20%; with Setaia fabei (SETFA), 50%; in [1], 90%; in assay [2], 90%; in [3], 70%; in assay [4] it was 30%. Also, the figures for the pest or weed control at 500 g/ha (in assay [5]; in assay [6]; in the assay with Eleusine indica (ELEIN)) were 30%, 0% and 70%, respectively.

On to `O=C(O)C[n+]1ccc(-c2nccs2)cn1` [Compound A123], for which the pest or weed control at 500 g/ha was 10% with Lolium perenne (LOLPE); 10% in the assay on Setaia fabei (SETFA); 0% in assay [1]; 20% in [2]; 30% in assay [3]; 10% in [4]. The results for the pest or weed control at 500 g/ha (in assay [5]; in [6]; with Eleusine indica (ELEIN)) were 10%, 0% and 20%, respectively.

Turning to `CCOC(=O)c1coc(-c2cc[n+](CCS(=O)(=O)O)nc2)n1` [Compound A124], the “Control of weed species after post-emergence application, LOLPE (100=total damage to plant; 0=no damage to plant)” value in the assay on Lolium perenne (LOLPE) was 40. In addition, in the assay with Setaia fabei (SETFA), the “Control of weed species after post-emergence application, SETFA (100=total damage to plant; 0=no damage to plant)” value stood at 70. Further, the “Control of weed species after post-emergence application, AMAPA (100=total damage to plant; 0=no damage to plant)” value in [1] was 90. Also, in assay [2], the “Control of weed species after post-emergence application, DIGSA (100=total damage to plant; 0=no damage to plant)” value is listed as 90. The “Control of weed species after post-emergence application, EPHHL (100=total damage to plant; 0=no damage to plant)” value in assay [3] amounted to 90. Also, the “Control of weed species after post-emergence application, IPOHE (100=total damage to plant; 0=no damage to plant)” value in [4] worked out at 40. In addition, the “Control of weed species after post-emergence application, ECHCG (100=total damage to plant; 0=no damage to plant)” value in [5] is reported as 40. Besides, the “Control of weed species after post-emergence application, CHEAL (100=total damage to plant; 0=no damage to plant)” value in assay [6] is reported as 30. Further, the “Control of weed species after post-emergence application, ELEIN (100=total damage to plant; 0=no damage to plant)” value with Eleusine indica (ELEIN) was 80.

In the case of `CNC(=O)c1coc(-c2cc[n+](CCS(=O)(=O)O)nc2)n1` [Compound A125], the “Control of weed species after post-emergence application, LOLPE (100=total damage to plant; 0=no damage to plant)” value in the assay on Lolium perenne (LOLPE) is on record as 40. In the assay on Setaia fabei (SETFA), the “Control of weed species after post-emergence application, SETFA (100=total damage to plant; 0=no damage to plant)” value is 70. In addition, the “Control of weed species after post-emergence application, AMAPA (100=total damage to plant; 0=no damage to plant)” value in [1] is given as 30. For the same compound, the “Control of weed species after post-emergence application, DIGSA (100=total damage to plant; 0=no damage to plant)” value in assay [2] turned out to be 60. Besides, the “Control of weed species after post-emergence application, EPHHL (100=total damage to plant; 0=no damage to plant)” value in assay [3] was 40. Also, the “Control of weed species after post-emergence application, IPOHE (100=total damage to plant; 0=no damage to plant)” value in [4] came out at 10. In [5], the “Control of weed species after post-emergence application, ECHCG (100=total damage to plant; 0=no damage to plant)” value turned out to be 60. In addition, in [6], the “Control of weed species after post-emergence application, CHEAL (100=total damage to plant; 0=no damage to plant)” value came to 10. The “Control of weed species after post-emergence application, ELEIN (100=total damage to plant; 0=no damage to plant)” value in the assay on Eleusine indica (ELEIN) stood at 40.

The values above are taken from patent publication US20210053957A1, “HERBICIDAL COMPOUNDS” (SYNGENTA PARTICIPATIONS AG, priority 2018, published 2021).
